{"source": "patent US20240150360A1", "about": "(THE REGENTS OF THE UNIVERSITY OF MICHIGAN, priority 2021, published 2024)", "key": {"HL60": {"system": "HL60", "assay": "Cell growth inhibition in HL60", "type": "cell-based", "details": "Homo sapiens, HL-60, HL60 cells; read-out: Cell Growth Inhibition (IC50) HL60"}, "CBP": {"molecular_target": "T1, CBP (Homo sapiens, UniProt Q92793)", "T1 construct": "endogenous in cells; host or cells: 22Rv1 (ATCC CRL-2505) human prostate cancer cells", "T1 sequence (Q92793 whole entry)": "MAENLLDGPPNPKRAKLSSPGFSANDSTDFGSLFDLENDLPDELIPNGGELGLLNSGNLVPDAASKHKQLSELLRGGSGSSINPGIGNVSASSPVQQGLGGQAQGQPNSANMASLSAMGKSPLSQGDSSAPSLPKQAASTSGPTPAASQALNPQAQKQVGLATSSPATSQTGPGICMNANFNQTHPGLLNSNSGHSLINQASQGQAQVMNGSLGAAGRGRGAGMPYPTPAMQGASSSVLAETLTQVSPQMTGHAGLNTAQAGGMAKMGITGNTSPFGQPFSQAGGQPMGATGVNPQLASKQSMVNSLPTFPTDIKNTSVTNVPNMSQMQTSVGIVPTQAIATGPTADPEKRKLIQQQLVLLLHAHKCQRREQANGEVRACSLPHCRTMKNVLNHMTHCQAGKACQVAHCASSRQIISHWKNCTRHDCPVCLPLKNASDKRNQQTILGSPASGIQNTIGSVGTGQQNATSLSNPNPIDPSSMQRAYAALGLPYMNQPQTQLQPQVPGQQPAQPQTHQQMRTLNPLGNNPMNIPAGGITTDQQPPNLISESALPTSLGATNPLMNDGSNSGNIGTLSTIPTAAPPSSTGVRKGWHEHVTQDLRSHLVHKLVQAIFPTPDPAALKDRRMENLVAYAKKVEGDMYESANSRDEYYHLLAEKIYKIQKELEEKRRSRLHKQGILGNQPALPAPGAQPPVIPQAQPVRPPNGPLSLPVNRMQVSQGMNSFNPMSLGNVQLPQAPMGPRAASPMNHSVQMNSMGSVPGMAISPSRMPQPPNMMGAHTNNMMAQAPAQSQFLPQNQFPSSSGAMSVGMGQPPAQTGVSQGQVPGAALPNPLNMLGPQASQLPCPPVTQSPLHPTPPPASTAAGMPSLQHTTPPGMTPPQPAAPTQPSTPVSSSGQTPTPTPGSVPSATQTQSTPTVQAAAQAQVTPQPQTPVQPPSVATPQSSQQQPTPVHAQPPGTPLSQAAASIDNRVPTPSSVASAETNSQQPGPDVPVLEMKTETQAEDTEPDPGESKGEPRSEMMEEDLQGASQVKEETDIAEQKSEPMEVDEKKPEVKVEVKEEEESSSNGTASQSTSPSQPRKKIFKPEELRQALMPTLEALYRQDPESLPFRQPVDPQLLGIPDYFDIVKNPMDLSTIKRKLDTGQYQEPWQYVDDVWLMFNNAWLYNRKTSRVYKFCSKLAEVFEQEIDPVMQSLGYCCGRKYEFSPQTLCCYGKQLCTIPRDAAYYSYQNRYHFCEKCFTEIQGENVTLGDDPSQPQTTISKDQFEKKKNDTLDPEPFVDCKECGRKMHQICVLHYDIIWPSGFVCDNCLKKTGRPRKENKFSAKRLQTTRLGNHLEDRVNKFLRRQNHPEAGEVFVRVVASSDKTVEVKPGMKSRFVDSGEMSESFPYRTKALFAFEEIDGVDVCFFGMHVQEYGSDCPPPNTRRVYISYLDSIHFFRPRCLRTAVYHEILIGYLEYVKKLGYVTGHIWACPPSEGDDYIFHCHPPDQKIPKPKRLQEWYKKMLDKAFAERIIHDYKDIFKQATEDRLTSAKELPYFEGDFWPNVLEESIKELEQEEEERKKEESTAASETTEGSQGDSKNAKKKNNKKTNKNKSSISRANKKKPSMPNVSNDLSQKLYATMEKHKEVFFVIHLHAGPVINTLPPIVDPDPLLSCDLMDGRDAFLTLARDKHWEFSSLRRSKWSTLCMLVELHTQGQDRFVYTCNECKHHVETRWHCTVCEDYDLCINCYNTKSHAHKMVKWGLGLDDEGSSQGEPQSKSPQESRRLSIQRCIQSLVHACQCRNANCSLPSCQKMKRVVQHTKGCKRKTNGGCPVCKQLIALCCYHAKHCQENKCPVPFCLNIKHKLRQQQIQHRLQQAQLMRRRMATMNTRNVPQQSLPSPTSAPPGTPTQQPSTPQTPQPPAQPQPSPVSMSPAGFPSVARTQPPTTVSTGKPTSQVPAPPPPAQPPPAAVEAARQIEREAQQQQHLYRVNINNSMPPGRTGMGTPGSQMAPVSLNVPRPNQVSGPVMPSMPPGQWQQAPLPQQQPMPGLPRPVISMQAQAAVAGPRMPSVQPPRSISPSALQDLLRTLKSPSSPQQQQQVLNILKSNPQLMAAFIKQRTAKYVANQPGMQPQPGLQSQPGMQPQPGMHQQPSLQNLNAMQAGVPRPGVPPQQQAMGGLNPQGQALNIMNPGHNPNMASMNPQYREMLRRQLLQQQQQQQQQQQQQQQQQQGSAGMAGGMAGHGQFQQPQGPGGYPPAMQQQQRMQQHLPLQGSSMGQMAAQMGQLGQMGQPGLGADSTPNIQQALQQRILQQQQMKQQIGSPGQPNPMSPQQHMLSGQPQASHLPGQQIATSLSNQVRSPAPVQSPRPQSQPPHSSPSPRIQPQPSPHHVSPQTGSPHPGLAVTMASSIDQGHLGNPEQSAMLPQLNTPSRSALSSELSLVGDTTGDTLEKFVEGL", "assay": "CBP degradation in 22Rv1 cells (5 h)", "type": "cell-based", "details": "22Rv1 cells, 5 h; for Dmax: 22Rv1, 5 h, read-out: CBP Degradation (22Rv1, 5 h) DCmax", "description": "(§1) Biological Assays. […] Cells with 3-8 passages after purchase were used in experiments."}, "22Rv1 cells": {"system": "22Rv1 cells", "assay": "Cell growth inhibition assay (CellTiter-Glo) in 22Rv1", "type": "cell-based, human", "details": "Homo sapiens, 22Rv1, 96 h, 22Rv1 cells, 96 h incubation; read-out: Cell Growth Inhibition (IC50) 22Rv1", "how_it_was_run": "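22Rv1 prostate cancer cells (passages 3-8, DMEM with 10% FBS) were seeded at 4000 cells/well with compound, 3-fold dilutions from 10 μM final. After 96 h at 37° C and 5% CO2, growth was read by CellTiter-Glo 2.0 luminescence.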"}, "P300": {"molecular_target": "T2, P300 (Homo sapiens, UniProt Q09472)", "T2 construct": "endogenous in cells; host or cells: 22Rv1 (ATCC CRL-2505) human prostate cancer cells", "T2 sequence (Q09472 whole entry)": "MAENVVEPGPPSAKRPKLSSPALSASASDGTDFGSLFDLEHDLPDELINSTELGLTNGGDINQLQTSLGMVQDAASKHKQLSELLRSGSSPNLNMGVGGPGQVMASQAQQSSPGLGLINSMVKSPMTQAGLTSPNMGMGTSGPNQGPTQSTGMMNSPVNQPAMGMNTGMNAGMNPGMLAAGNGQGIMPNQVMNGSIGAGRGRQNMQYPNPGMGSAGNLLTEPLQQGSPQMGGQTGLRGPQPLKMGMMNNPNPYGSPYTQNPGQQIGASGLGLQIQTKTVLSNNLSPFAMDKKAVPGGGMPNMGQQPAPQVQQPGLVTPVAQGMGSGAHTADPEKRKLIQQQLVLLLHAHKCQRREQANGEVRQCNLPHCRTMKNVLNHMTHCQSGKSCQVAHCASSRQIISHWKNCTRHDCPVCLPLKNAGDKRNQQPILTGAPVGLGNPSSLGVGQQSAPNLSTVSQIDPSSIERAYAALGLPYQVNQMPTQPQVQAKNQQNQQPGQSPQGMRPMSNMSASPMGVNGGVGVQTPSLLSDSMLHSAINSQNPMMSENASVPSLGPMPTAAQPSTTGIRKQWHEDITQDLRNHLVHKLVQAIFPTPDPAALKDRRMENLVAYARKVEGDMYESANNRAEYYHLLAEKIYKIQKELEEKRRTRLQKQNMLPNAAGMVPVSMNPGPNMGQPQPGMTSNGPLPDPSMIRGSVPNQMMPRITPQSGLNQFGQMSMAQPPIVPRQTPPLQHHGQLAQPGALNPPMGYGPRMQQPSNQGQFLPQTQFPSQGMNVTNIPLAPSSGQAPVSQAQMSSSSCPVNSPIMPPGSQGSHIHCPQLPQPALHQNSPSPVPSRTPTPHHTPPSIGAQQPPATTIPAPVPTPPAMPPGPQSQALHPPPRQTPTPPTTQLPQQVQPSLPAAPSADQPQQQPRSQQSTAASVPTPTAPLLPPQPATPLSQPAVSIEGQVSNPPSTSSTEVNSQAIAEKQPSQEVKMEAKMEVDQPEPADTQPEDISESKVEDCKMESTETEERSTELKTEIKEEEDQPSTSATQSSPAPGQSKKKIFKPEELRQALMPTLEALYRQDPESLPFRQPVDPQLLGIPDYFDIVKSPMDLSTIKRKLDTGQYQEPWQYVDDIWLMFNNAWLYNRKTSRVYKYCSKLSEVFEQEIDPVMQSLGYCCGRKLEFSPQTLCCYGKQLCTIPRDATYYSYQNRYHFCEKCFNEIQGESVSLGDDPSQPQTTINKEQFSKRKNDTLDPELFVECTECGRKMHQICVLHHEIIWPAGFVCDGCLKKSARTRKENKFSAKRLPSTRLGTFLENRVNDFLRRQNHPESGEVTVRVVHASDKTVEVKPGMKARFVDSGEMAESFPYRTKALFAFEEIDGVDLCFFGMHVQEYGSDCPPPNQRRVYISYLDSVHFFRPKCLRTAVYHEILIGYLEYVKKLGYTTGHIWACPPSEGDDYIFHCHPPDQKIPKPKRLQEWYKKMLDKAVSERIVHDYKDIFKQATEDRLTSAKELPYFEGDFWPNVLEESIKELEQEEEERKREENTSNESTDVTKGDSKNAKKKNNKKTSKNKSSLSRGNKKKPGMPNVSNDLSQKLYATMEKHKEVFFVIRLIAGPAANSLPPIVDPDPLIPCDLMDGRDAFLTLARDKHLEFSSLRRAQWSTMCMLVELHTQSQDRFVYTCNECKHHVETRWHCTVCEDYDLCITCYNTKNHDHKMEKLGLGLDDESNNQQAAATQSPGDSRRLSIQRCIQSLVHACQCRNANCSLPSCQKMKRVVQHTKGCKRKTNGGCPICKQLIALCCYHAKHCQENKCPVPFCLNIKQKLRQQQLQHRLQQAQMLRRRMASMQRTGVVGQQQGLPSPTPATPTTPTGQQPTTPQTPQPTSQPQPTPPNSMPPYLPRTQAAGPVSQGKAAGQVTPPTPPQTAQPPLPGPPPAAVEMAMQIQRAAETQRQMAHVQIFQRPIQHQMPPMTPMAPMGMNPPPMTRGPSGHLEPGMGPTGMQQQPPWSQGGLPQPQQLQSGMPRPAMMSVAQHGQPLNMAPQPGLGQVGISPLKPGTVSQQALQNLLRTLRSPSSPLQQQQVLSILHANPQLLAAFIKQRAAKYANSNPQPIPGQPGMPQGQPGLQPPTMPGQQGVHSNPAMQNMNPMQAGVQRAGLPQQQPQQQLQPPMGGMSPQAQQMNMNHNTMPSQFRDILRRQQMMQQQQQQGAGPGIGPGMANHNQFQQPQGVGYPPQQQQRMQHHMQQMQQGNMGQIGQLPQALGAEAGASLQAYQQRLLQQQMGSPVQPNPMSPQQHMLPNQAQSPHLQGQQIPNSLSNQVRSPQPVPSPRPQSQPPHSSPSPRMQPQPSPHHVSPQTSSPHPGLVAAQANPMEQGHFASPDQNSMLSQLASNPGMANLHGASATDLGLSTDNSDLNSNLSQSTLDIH", "assay": "P300 degradation in 22Rv1 cells (5 h)", "type": "cell-based", "details": "22Rv1 cells, 5 h; for Dmax: read-out: P300 Degradation (22Rv1, 5 h) DCmax", "description": "as §1"}}}
{"smiles": "CC(=O)N1CCc2c(c(N3CCCc4cc(C5CC5)c(C(F)F)cc43)nn2C2CCN(C(=O)CN3CCc4cc5c(cc4C3)C(=O)N(C3CCC(=O)NC3=O)C5=O)CC2)C1", "note": "(stereo not drawn) [CP-014, 6-(2-(4-(5-acetyl-3-(6-cyclopropyl-7-(difluoromethyl)-3,4-dihydroquinolin-1(2H)-yl)-4,5,6,7-tetrahydro-1H-pyrazolo[4,3-c]pyridin-1-yl)piperidin-1-yl)-2-oxoethyl)-2-(2,6-dioxopiperidin-3-yl)-5,6,7,8-tetrahydro-1H-pyrrolo[3,4-g]isoquinoline-1,3(2H)-dione]", "values": [{"measurement": "IC50", "setting": "HL60", "result": "< 1000", "unit": "nM"}, {"measurement": "Dmax", "setting": "CBP", "result": "> 90", "unit": "%"}, {"measurement": "DC50", "setting": "CBP", "result": "< 10", "unit": "nM"}, {"measurement": "IC50", "setting": "22Rv1 cells", "result": "< 1000", "unit": "nM"}, {"measurement": "DC50", "setting": "P300", "result": "< 10", "unit": "nM"}, {"measurement": "Dmax", "setting": "P300", "result": "> 70", "unit": "%"}]}
{"smiles": "CC(=O)N1CCc2c(ccc3c2CCCN3c2nn(C3CCN(C(=O)CN4Cc5cc6c(cc5C4)C(=O)N(C4CCC(=O)NC4=O)C6=O)CC3)c3c2CN(C(C)=O)CC3)C1", "note": "(stereo not drawn) [CP-081, 6-(2-(4-(5-acetyl-3-(3-acetyl-1,3,4,8,9,10-hexahydro-3,7-phenanthrolin-7(2H)-yl)-4,5,6,7-tetrahydro-1H-pyrazolo[4,3-c]pyridin-1-yl)piperidin-1-yl)-2-oxoethyl)-2-(2,6-dioxopiperidin-3-yl)-6,7-dihydropyrrolo[3,4-f]isoindole-1,3(2H,5H)-dione]", "values": [{"measurement": "IC50", "setting": "HL60", "result": "> 10000", "unit": "nM"}, {"measurement": "Dmax", "setting": "CBP", "result": "< 50", "unit": "%"}, {"measurement": "DC50", "setting": "CBP", "result": "> 1000", "unit": "nM"}, {"measurement": "IC50", "setting": "22Rv1 cells", "result": "> 10000", "unit": "nM"}, {"measurement": "DC50", "setting": "P300", "result": "> 1000", "unit": "nM"}, {"measurement": "Dmax", "setting": "P300", "result": "< 50", "unit": "%"}]}
{"smiles": "CC(=O)N1CCc2c(c(-c3cccc4ccccc34)nn2C2CCN(C(=O)CN3Cc4cc5c(cc4C3)C(=O)N(C3CCC(=O)NC3=O)C5=O)CC2)C1", "note": "(stereo not drawn) [CP-075, 6-(2-(4-(5-acetyl-3-(naphthalen-1-yl)-4,5,6,7-tetrahydro-1H-pyrazolo[4,3-c]pyridin-1-yl)piperidin-1-yl)-2-oxoethyl)-2-(2,6-dioxopiperidin-3-yl)-6,7-dihydropyrrolo[3,4-f]isoindole-1,3(2H,5H)-dione]", "values": [{"measurement": "IC50", "setting": "HL60", "result": "< 1000", "unit": "nM"}, {"measurement": "Dmax", "setting": "CBP", "result": "> 90", "unit": "%"}, {"measurement": "DC50", "setting": "CBP", "result": "< 10", "unit": "nM"}, {"measurement": "IC50", "setting": "22Rv1 cells", "result": "< 1000", "unit": "nM"}, {"measurement": "DC50", "setting": "P300", "result": "< 10", "unit": "nM"}, {"measurement": "Dmax", "setting": "P300", "result": "> 90", "unit": "%"}]}
{"smiles": "CC(=O)N1CCc2c(c(N3CCCc4cc5c(cc43)C(C)(C)CCC5)nn2C2CCN(C(=O)CN3Cc4cc5c(cc4C3)C(=O)N(C3CCC(=O)NC3=O)C5=O)CC2)C1", "note": "(stereo not drawn) [CP-083, 6-(2-(4-(5-acetyl-3-(9,9-dimethyl-3,4,6,7,8,9-hexahydrobenzo[g]quinolin-1(2H)-yl)-4,5,6,7-tetrahydro-1H-pyrazolo[4,3-c]pyridin-1-yl)piperidin-1-yl)-2-oxoethyl)-2-(2,6-dioxopiperidin-3-yl)-6,7-dihydropyrrolo[3,4-f]isoindole-1,3(2H,5H)-dione]", "values": [{"measurement": "IC50", "setting": "HL60", "result": "> 10000", "unit": "nM"}, {"measurement": "Dmax", "setting": "CBP", "result": "< 50", "unit": "%"}, {"measurement": "DC50", "setting": "CBP", "result": "> 1000", "unit": "nM"}, {"measurement": "IC50", "setting": "22Rv1 cells", "result": "> 10000", "unit": "nM"}, {"measurement": "DC50", "setting": "P300", "result": "> 1000", "unit": "nM"}, {"measurement": "Dmax", "setting": "P300", "result": "< 50", "unit": "%"}]}
{"smiles": "CC(=O)N1CCc2c(c(N3CCCc4cc(-c5cnn(C)c5)c(C(F)F)cc43)nn2C2CCC(C(C)CN3Cc4cc5c(cc4C3)C(=O)N(C3CCC(=O)NC3=O)C5=O)CC2)C1", "note": "(stereo not drawn) [CP-051, 6-(2-(4-(5-acetyl-3-(7-(difluoromethyl)-6-(1-methyl-1H-pyrazol-4-yl)-3,4-dihydroquinolin-1(2H)-yl)-4,5,6,7-tetrahydro-1H-pyrazolo[4,3-c]pyridin-1-yl)cyclohexyl)propyl)-2-(2,6-dioxopiperidin-3-yl)-6,7-dihydropyrrolo[3,4-f]isoindole-1,3(2H,5H)-dione]", "values": [{"measurement": "IC50", "setting": "HL60", "result": "< 100", "unit": "nM"}, {"measurement": "Dmax", "setting": "CBP", "result": "> 90", "unit": "%"}, {"measurement": "DC50", "setting": "CBP", "result": "< 10", "unit": "nM"}, {"measurement": "IC50", "setting": "22Rv1 cells", "result": "< 100", "unit": "nM"}, {"measurement": "DC50", "setting": "P300", "result": "< 10", "unit": "nM"}, {"measurement": "Dmax", "setting": "P300", "result": "> 90", "unit": "%"}]}
{"smiles": "Cc1noc(C)c1-c1ccc2c(c1)nc([C@@H]1CCCC(=O)N1c1ccc(F)c(F)c1)n2C1CCN(C(=O)CN2CCc3cc4c(cc3C2)C(=O)N(C2CCC(=O)NC2=O)C4=O)CC1", "note": "(stereo partly drawn) [CP-063, 6-(2-(4-(2-((S)-1-(3,4-difluorophenyl)-6-oxopiperidin-2-yl)-5-(3,5-dimethylisoxazol-4-yl)-1H-benzo[d]imidazol-1-yl)piperidin-1-yl)-2-oxoethyl)-2-(2,6-dioxopiperidin-3-yl)-5,6,7,8-tetrahydro-1H-pyrrolo[3,4-g]isoquinoline-1,3(2H)-dione]", "values": [{"measurement": "IC50", "setting": "HL60", "result": "> 10000", "unit": "nM"}, {"measurement": "Dmax", "setting": "CBP", "result": "< 50", "unit": "%"}, {"measurement": "DC50", "setting": "CBP", "result": "> 1000", "unit": "nM"}, {"measurement": "IC50", "setting": "22Rv1 cells", "result": "> 10000", "unit": "nM"}, {"measurement": "DC50", "setting": "P300", "result": "> 1000", "unit": "nM"}, {"measurement": "Dmax", "setting": "P300", "result": "< 50", "unit": "%"}]}
{"smiles": "CC(=O)N1CCc2c(c(N3CCCc4cc(-c5cnn(C)c5)c(C(F)F)cc43)nn2C2CCN(CC3Cc4cc5c(cc4C3)C(=O)N(C3CCC(=O)NC3=O)C5=O)CC2)C1", "note": "(stereo not drawn) [CP-052, 6-((4-(5-acetyl-3-(7-(difluoromethyl)-6-(1-methyl-1H-pyrazol-4-yl)-3,4-dihydroquinolin-1(2H)-yl)-4,5,6,7-tetrahydro-1H-pyrazolo[4,3-c]pyridin-1-yl)piperidin-1-yl)methyl)-2-(2,6-dioxopiperidin-3-yl)-6,7-dihydrocyclopenta[f]ioindole-1,3(2H,5H)-dione]", "values": [{"measurement": "IC50", "setting": "HL60", "result": "< 1000", "unit": "nM"}, {"measurement": "Dmax", "setting": "CBP", "result": "> 70", "unit": "%"}, {"measurement": "DC50", "setting": "CBP", "result": "< 10", "unit": "nM"}, {"measurement": "IC50", "setting": "22Rv1 cells", "result": "< 100", "unit": "nM"}, {"measurement": "DC50", "setting": "P300", "result": "< 10", "unit": "nM"}, {"measurement": "Dmax", "setting": "P300", "result": "> 70", "unit": "%"}]}
{"smiles": "Cn1cc(-c2cc3c(cc2C(F)F)N(c2nn(C4CCN(C(=O)CN5Cc6cc7c(cc6C5)C(=O)N(C5CCC(=O)NC5=O)C7=O)CC4)c4c2CN(C(=O)C2CC2)CC4)CCC3)cn1", "note": "(stereo not drawn) [CP-054, 6-(2-(4-(5-(cyclopropanecarbonyl)-3-(7-(difluoromethyl)-6-(1-methyl-1H-pyrazol-4-yl)-3,4-dihydroquinolin-1(2H)-yl)-4,5,6,7-tetrahydro-1H-pyrazolo[4,3-c]pyridin-1-yl)piperidin-1-yl)-2-oxoethyl)-2-(2,6-dioxopiperidin-3-yl)-6,7-dihydropyrrolo[3,4-f]isoindole-1,3(2H,5H)-dione]", "values": [{"measurement": "IC50", "setting": "HL60", "result": "< 10000", "unit": "nM"}, {"measurement": "Dmax", "setting": "CBP", "result": "< 50", "unit": "%"}, {"measurement": "DC50", "setting": "CBP", "result": "> 1000", "unit": "nM"}, {"measurement": "IC50", "setting": "22Rv1 cells", "result": "< 10000", "unit": "nM"}, {"measurement": "DC50", "setting": "P300", "result": "> 1000", "unit": "nM"}, {"measurement": "Dmax", "setting": "P300", "result": "< 50", "unit": "%"}]}
{"smiles": "CC(=O)N1CCc2c(c(N3CCCc4cc5c(cc43)C(C)CCC5)nn2C2CCN(C(=O)CN3Cc4cc5c(cc4C3)C(=O)N(C3CCC(=O)NC3=O)C5=O)CC2)C1", "note": "(stereo not drawn) [CP-079, 6-(2-(4-(5-acetyl-3-(9-methyl-3,4,6,7,8,9-hexahydrobenzo[g]quinolin-1(2H)-yl)-4,5,6,7-tetrahydro-1H-pyrazolo[4,3-c]pyridin-1-yl)piperidin-1-yl)-2-oxoethyl)-2-(2,6-dioxopiperidin-3-yl)-6,7-dihydropyrrolo[3,4-f]isoindole-1,3(2H,5H)-dione]", "values": [{"measurement": "IC50", "setting": "HL60", "result": "< 100", "unit": "nM"}, {"measurement": "Dmax", "setting": "CBP", "result": "> 90", "unit": "%"}, {"measurement": "DC50", "setting": "CBP", "result": "< 100", "unit": "nM"}, {"measurement": "IC50", "setting": "22Rv1 cells", "result": "< 1000", "unit": "nM"}, {"measurement": "DC50", "setting": "P300", "result": "< 100", "unit": "nM"}, {"measurement": "Dmax", "setting": "P300", "result": "> 70", "unit": "%"}]}
{"smiles": "CC(=O)N1CCc2c(c(N3CCCc4cc(-c5cnn(C)c5)c(C(F)F)cc43)nn2[C@H]2CC[C@H](CN3CCc4cc5c(cc4C3)C(=O)N(C3CCC(=O)NC3=O)C5=O)CC2)C1", "note": "(stereo partly drawn) [CP-049, 6-((4-(5-acetyl-3-(7-(difluoromethyl)-6-(1-methyl-1H-pyrazol-4-yl)-3,4-dihydroquinolin-1(2H)-yl)-4,5,6,7-tetrahydro-1H-pyrazolo[4,3-c]pyridin-1-yl)cyclohexyl)methyl)-2-(2,6-dioxopiperidin-3-yl)-5,6,7,8-tetrahydro-1H-pyrrolo[3,4-g]isoquinoline-1,3(2H)-dione]", "values": [{"measurement": "IC50", "setting": "HL60", "result": "< 100", "unit": "nM"}, {"measurement": "Dmax", "setting": "CBP", "result": "> 90", "unit": "%"}, {"measurement": "DC50", "setting": "CBP", "result": "< 10", "unit": "nM"}, {"measurement": "IC50", "setting": "22Rv1 cells", "result": "< 100", "unit": "nM"}, {"measurement": "DC50", "setting": "P300", "result": "< 10", "unit": "nM"}, {"measurement": "Dmax", "setting": "P300", "result": "> 70", "unit": "%"}]}
